Reference: patent US20070110813A1, “Polycation-polyanion complexes, compositions and methods of use thereof” (priority 2005, published 2007)
Entries after “also recorded” stand apart in the source; their conditions may differ. Where two headings read alike, the source gives them in different places.

How the values were obtained:
sheep lungs = format: in vivo
Description: Polylysine was delivered to 12 pulmonary subsegments via a bronchoscope in a fibrin gel matrix at 100 mg, 30 mg and 10 mg per subsegment (groups 1, 2 and 3 in FIG. 1). The molecular weight of the polylysine used was 20,000-80,000 Da with an average molecular weight of 55,000 Da. A total of 10 sheep were thus treated.
The characteristic lesion caused by polylysine is renal infarction, consistent with what has been reported in the literature for polycationic injury. In the animals tested with baseline normal renal function, renal damage resulting from cationic injury remains subclinical. […] Thus, these clinical pathology tests were not sufficiently sensitive to detect polycationic renal injury resulting from polylysine. Polycationic renal toxicity following pulmonary treatment is initiated and can be detected only at necropsy within days of treatment. […] The characteristic acute lesion appeared to be renal infarction with associated hemorrhage. Lesions occurred within days (3-7 days) of cationic exposure. Necropsy findings are the most sensitive markers of toxicity.
4 sheep were treated at 12 pulmonary subsegments each with a fibrin gel containing 100 mg chondroitin sulfate (Group 5 in FIG. 1). 2 animals were sacrificed at 8 days and the remaining 2 animals were sacrificed at 4 weeks. […] However, pulmonary responses in these animals were minimal, indicating poor efficacy.
In a series of 4 sheep experiments (Group 6 in FIG. 1), in-situ precipitation of chondroitin sulfate and polylysine solutions was achieved as they exit a dual lumen catheter. Chondroitin sulfate was added to a fibrinogen solution to a final concentration of 20 mg/mL, while polylysine was added to a thrombin solution to a final concentration of 20 mg/mL. Both solutions were 5 mL and were injected through a dual lumen catheter into subsegments of sheep lungs for a total of 10 mL per subsegment.
In a total of 4 sheep (Group 7 in FIG. 1), use of systemic heparin to complex polylysine in the circulation and reduce or prevent renal toxicity was attempted.
Using this precipitation methodology, polylysine related renal toxicity was prevented over a broad polylysine concentration range from 1 mg/mL to 10 mg/mL at chondroitin sulfate concentration of 1 to 5 mg/mL (Groups 9 to 13 in FIG. 1).
Lung volume reduction treatment was performed in 8 consecutive animals at 84 subseguential sites using a formulation containing 13 mg/mL of human fibrinogen, 5 mg/mL of sodium chondroitin sulfate, 5 mg/mL of poly-L-lysine, and polymerized in situ with 1000 U activated human thrombin (Group 13 in FIG. 1).

rats = assay: Lung volume reduction in rats, fibrin gel, lungs and kidneys evaluated after 1 week; format: in vivo; conditions: 200 U/mL thrombin
Description: (§1) Three rats were treated with 5 mg/mL poly(Lys, Glu) to evaluate whether the copolymer could be used to modulate local and/or systemic toxicity. Treatments contained 28.6 mg/mL fibrinogen polymerized with 200 U/mL thrombin. All rats were anesthetized and intubated orotracheally. A dual lumen catheter was placed into a target site in the lung with bronchoscopic guidance. The reagents were injected into the lung and the catheter was removed. Each animal was allowed to recover from anesthesia, and returned to its cage. After 1 week, all animals were euthanized. The extent of pleural scarring was assessed prior to lung removal from the chest cavity. The lungs were then removed en bloc, fully inflated, and evaluated visually to assess the extent of local parenchymal inflammation and scarring produced by treatment. The kidneys were also harvested and evaluated for the presence of cortical lesions and infarctions which can develop as a consequence of systemic toxicity following polycation adminstration.
as §1, with “4” for “Three”, “2.5” for “5”, “polyomithine and 3 were treated with 2.5 mg/mL polyomithine precipitated with 2.5 mg/mL chondroitin sulfate” for “poly(Lys, Glu)”, “precipitation” for “the copolymer”, “administration.” for “adminstration.”

[1] = 2.5 mg/mL polyornithine in 28.6 mg/mL fibrinogen
[2] = 5 mg/mL poly(Lys, Glu) in 28.6 mg/mL fibrinogen
[3] = 100 mg/treatment in fibrin gel, 12 pulmonary subsegments (group 1)
[4] = 10 and 30 mg/treatment in fibrin gel (groups 2 and 3)

Substance: heparin
- prevention of polylysine renal lesions (sheep lungs; systemic heparin to complex polylysine in the circulation, 4 sheep (Group 7)): did not prevent renal lesions

Substance: polyornithine
- local toxicity (rats; [1]): significant local toxicity
- systemic toxicity (rats; [1]): systemic toxicity, manifest as renal lesions

Substance: poly(Lys, Glu) [copolymer]
- local pulmonary lesions / efficacy as lung volume reduction agent (rats; [2]): no significant local pulmonary lesions; also recorded: failed to demonstrate efficacy
- systemic toxicity, manifest as renal lesions (rats; [2]): no incidence of systemic toxicity; also recorded: did not show any systemic toxicity

Substance: chondroitin sulfate
- pulmonary responses (sheep lungs; fibrin gel containing 100 mg chondroitin sulfate, 12 subsegments (Group 5)): minimal

Substance: poly-L-lysine [polylysine]
- lung injury (sheep lungs; [3]): severe lung injury
- renal toxicity (sheep lungs; [3]): renal toxicity manifest as nephropathy and infarction
- pulmonary responses (sheep lungs; [4]): acceptable pulmonary responses
- renal toxicity (sheep lungs; [4]): associated with renal toxicity
- serum BUN or creatinine, urine analysis, urine protein-to-creatinine ratio (sheep lungs; animals with renal lesions at necropsy): No abnormalities
- time of occurrence of renal lesions after cationic exposure (sheep lungs; renal infarction with associated hemorrhage): 3 to 7 days
